Biological target: T1, Beta-1,4-galactosyltransferase 1 (Bos taurus, UniProt P08037)
T1 sequence (P08037 whole entry): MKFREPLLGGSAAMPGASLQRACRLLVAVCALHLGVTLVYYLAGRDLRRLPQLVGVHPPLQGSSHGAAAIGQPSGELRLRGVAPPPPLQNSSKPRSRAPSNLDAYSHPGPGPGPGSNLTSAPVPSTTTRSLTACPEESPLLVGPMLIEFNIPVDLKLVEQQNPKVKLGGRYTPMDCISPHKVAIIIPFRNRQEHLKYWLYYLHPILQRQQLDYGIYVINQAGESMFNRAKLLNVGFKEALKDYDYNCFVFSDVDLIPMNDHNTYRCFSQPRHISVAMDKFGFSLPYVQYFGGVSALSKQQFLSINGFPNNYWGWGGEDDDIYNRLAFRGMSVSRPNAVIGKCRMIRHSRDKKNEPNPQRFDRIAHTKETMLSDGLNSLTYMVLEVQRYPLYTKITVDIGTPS
Assay: Inhibition constant of compound was tested against Beta-galactosyltransferase from bovine milk

## O=c1ccn(C2O[C@H](COP(=O)(O)OP(=O)(O)CC3=CC(O)C(O)C(CO)O3)[C@@H](O)[C@H]2O)c(=O)[nH]1 (stereo not given in full)
  Ki: 62 µM

## O=c1ccn(C2O[C@H](COP(=O)(O)CP(=O)(O)OC3OC(O)C(O)C(O)C3O)[C@@H](O)[C@H]2O)c(=O)[nH]1 (stereo not given in full)
  Ki: 96.9 µM

## O=c1ccn([C@@H]2O[C@H](COP(=O)(O)OP(=O)(O)OP(=O)(O)O)[C@@H](O)[C@H]2O)c(=O)[nH]1 [URIDINE TRIPHOSPHATE]
  Ki: 128 µM

## O=P(O)(O)CC1=CC(O)C(O)C(CO)O1 (stereo not given)
  Ki: 1430 µM

## O=c1ccn(C2O[C@H](COP(=O)(O)OP(=O)(O)C3OC(O)C(O)C(O)C3O)[C@@H](O)[C@H]2O)c(=O)[nH]1 (stereo not given in full)
  Ki: 165 µM

Source: ChEMBL document CHEMBL1150445, “A new galactosyl transferase inhibitor” (Bioorg Med Chem Lett, 1993)
